The experiment deals with T1, Human complement C1s enzyme (Homo sapiens, UniProt P09871).
T1 sequence (P09871 438-688 limits assumed): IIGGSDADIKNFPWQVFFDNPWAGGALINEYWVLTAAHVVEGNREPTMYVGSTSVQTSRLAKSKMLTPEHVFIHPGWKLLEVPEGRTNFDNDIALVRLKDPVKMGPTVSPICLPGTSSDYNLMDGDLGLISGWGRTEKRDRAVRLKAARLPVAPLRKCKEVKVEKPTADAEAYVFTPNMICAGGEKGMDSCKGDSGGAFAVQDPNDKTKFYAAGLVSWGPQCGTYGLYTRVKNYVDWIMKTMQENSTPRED
T1 sequence (P09871 16-437 partner limits assumed): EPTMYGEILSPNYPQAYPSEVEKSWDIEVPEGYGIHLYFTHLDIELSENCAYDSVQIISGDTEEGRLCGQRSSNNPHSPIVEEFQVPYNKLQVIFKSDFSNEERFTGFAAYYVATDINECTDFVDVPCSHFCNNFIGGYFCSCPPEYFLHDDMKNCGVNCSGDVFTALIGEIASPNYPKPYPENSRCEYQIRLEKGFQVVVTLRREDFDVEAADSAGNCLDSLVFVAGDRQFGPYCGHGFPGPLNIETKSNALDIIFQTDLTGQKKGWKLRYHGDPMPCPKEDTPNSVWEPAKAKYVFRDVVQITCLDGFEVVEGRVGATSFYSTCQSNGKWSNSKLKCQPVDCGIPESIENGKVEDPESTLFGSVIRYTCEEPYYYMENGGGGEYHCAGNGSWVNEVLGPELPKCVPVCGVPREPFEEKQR
Briefly: Human C1s enzyme assay. The format is biochemical. The following applies: human complement C1s enzyme 1.16 nM, substrate Z-L-Lys-SBzl 100 μM, 5 min preincubation; read-out: IC50 (Stars), C1s Inhibiting Activity. The gist of the method:
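IC50 from nonlinear regression of reaction rates versus compound concentration, with rates taken from A405 recorded at 30 s intervals over 30 min after adding 100 μM Z-L-Lys-SBzl plus 100 μM DTNB. Enzyme was human C1s purified from serum, 1.16 nM, given 5 min compound preincubation at room temperature, pH 7.5 Tris/1 M NaCl.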

For the molecule `O=C(NCC(=O)N1C[C@H](OC(F)F)C[C@H]1C(=O)NCc1cc2cnccc2[nH]1)c1ccccc1Oc1ccccc1` [Compound 239, (2S,4R)-N-((1H-pyrrolo[3,2-c]pyridin-2-yl)methyl)-4-(difluoromethoxy)-1-((2-phenoxybenzoyl)glycyl)pyrrolidine-2-carboxamide], the IC50 is greater than 1000 nM. In the case of `C[C@@H](NC(=O)[C@@H]1CC2(CN1C(=O)CNC(=O)c1cccc(Oc3ccc(F)cc3)c1)OCCO2)c1cc2cnccc2[nH]1` [Compound 240, (S)-N-((R)-1-(1H-pyrrolo[3,2-c]pyridin-2-yl)ethyl)-7-((3-(4-fluorophenoxy)benzoyl)glycyl)-1,4-dioxa-7-azaspiro[4.4]nonane-8-carboxamide] it was less than 100 nM; in that of `C[C@@H](NC(=O)[C@@H]1C[C@@H](OC(F)F)CN1C(=O)CNC(=O)c1cccc(Oc2ccc(F)cc2)c1)c1cc2cnccc2[nH]1` [Compound 241, (2S,4R)-N-((R)-1-(1H-pyrrolo[3,2-c]pyridin-2-yl)ethyl)-4-(difluoromethoxy)-1-((3-(4-fluorophenoxy)benzoyl)glycyl) pyrrolidine-2-carboxamide], less than 100 nM; in that of `CC1CCN(C(=O)CNC(=O)c2ccc3c(c2)Oc2ccccc2S3)[C@@H]1C(=O)NCc1cc2cnccc2[nH]1` (stereo partly drawn) [Compound 243, (2S)-N-((1H-pyrrolo[3,2-c]pyridin-2-yl)methyl)-3-methyl-1-((phenoxathiine-3-carbonyl)glycyl)pyrrolidine-2-carboxamide], greater than 1000 nM. Take `Cc1ccc(Oc2cc(C(=O)NCC(=O)N3C[C@H](OC(F)F)C[C@H]3C(=O)NCc3cc4cnccc4[nH]3)ccc2C)cc1` [Compound 244, (2S,4R)-N-((1H-pyrrolo[3,2-c]pyridin-2-yl)methyl)-4-(difluoromethoxy)-1-((4-methyl-3-(p-tolyloxy)benzoyl)glycyl) pyrrolidine-2-carboxamide]: the IC50 was less than 100 nM. Then `O=C(NCC(=O)N1C[C@H](OC(F)F)C[C@H]1C(=O)NCc1ccc2ncsc2c1)c1ccc2c(c1)Oc1ccccc1S2` [Compound 245, (2S,4R)-N-(benzo[d]thiazol-6-ylmethyl)-4-(difluoromethoxy)-1-((phenoxathiine-3-carbonyl)glycyl)pyrrolidine-2-carboxamide], with greater than 1000 nM.

`C[C@@]12C[C@@H]1N(C(=O)CNC(=O)c1cccc(Oc3ccccc3)c1)[C@H](C(=O)NCc1cc3cnccc3s1)C2` [Compound 246, (1S,3S,5S)-5-methyl-2-((3-phenoxybenzoyl)glycyl)-N-(thieno[3,2-c]pyridin-2-ylmethyl)-2-azabicyclo[3.1.0]hexane-3-carboxamide]: the IC50 was less than 100 nM. In the case of `O=C(NCC(=O)N1C[C@H](OC(F)F)C[C@H]1C(=O)NCc1cnc2[nH]ccc2c1)c1ccc2c(c1)Oc1ccccc1S2` [Compound 247] it was 100 to 1000 nM; in that of `Nc1nc(=O)oc2cc(CNC(=O)[C@@H]3C[C@@H](OC(F)F)CN3C(=O)CNC(=O)c3ccc4c(c3)Oc3ccccc3S4)ccc12` [Compound 248, (2S,4R)-N-((4-amino-2-oxo-2H-benzo[e][1,3]oxazin-7-yl)methyl)-4-(difluoromethoxy)-1-((phenoxathiine-3-carbonyl)glycyl)pyrrolidine-2-carboxamide], greater than 1000 nM. In the case of `O=C(NCC(=O)N1C[C@H](OC(F)F)C[C@H]1C(=O)NCc1ccc2ccncc2c1)c1ccc2c(c1)Oc1ccccc1S2` [Compound 249, (2S,4R)-4-(difluoromethoxy)-N-(isoquinolin-7-ylmethyl)-1-((phenoxathiine-3-carbonyl)glycyl)pyrrolidine-2-carboxamide] it was greater than 1000 nM; in that of `C[C@@]12C[C@@H]1N(C(=O)CNC(=O)c1ccc3c(c1)Oc1ccccc1S3)[C@H](C(=O)NCc1cccc(B(O)O)c1)C2` [Compound 250, (3-(((1S,3S,5S)-5-methyl-2-((phenoxathiine-3-carbonyl)glycyl)-2-azabicyclo[3.1.0]hexane-3-carboxamido)methyl)phenyl) boronic acid], greater than 1000 nM; in that of `C[C@@H](NC(=O)[C@@H]1C[C@@H](OC(F)(F)F)CN1C(=O)CNC(=O)c1ccc2c(c1)Oc1ccccc1S2)c1cc2cnccc2[nH]1` [Compound 251, (2S,4R)-N-((R)-1-(1H-pyrrolo[3,2-c]pyridin-2-yl)ethyl)-1-((phenoxathiine-3-carbonyl)glycyl)-4-(trifluoromethoxy)pyrrolidine-2-carboxamide], less than 100 nM. In the case of `C[C@@]12C[C@@H]1N(C(=O)CNC(=O)c1cccc(Oc3ccc(F)cc3)c1)[C@H](C(=O)NCc1cc3cnccc3s1)C2` [Compound 252, (1S,3S,5S)-2-((3-(4-fluorophenoxy)benzoyl)glycyl)-5-methyl-N-(thieno[3,2-c]pyridin-2-ylmethyl)-2-azabicyclo[3.1.0]hexane-3-carboxamide] it was less than 100 nM; in that of `O=C(NCC(=O)N1C[C@H](OC(F)F)C[C@H]1C(=O)NCc1cnc2c(c1)CNC2)c1ccc2c(c1)Oc1ccccc1S2` [Compound 253, (2S,4R)-4-(difluoromethoxy)-N-((6,7-dihydro-5H-pyrrolo[3,4-b]pyridin-3-yl)methyl)-1-((phenoxathiine-3-carbonyl)glycyl)pyrrolidine-2-carboxamide], 100 to 1000 nM; in that of `O=C(NCC(=O)N1C[C@H](OC(F)F)C[C@H]1C(=O)NCc1cc2cnccc2s1)c1cccc(Oc2ccc(F)cc2)c1` [Compound 254, (2S,4R)-4-(difluoromethoxy)-1-((3-(4-fluorophenoxy)benzoyl)glycyl)-N-(thieno[3,2-c]pyridin-2-ylmethyl)pyrrolidine-2-carboxamide], less than 100 nM.

Consider `O=C(NCC(=O)N1CC2(C[C@H]1C(=O)NCc1cc3cnccc3s1)OCCO2)c1cccc(Oc2ccc(F)cc2)c1` [Compound 255, (S)-7-((3-(4-fluorophenoxy)benzoyl)glycyl)-N-(thieno[3,2-c]pyridin-2-ylmethyl)-1,4-dioxa-7-azaspiro[4.4]nonane-8-carboxamide], for which the IC50 was in the range of 100 to 1000 nM.

With `O=C(NCC(=O)N1CC2(C[C@H]1C(=O)NCc1cc3cnccc3s1)OCCO2)c1cccc(Oc2ccccc2)c1` [Compound 256, (S)-7-((3-phenoxybenzoyl)glycyl)-N-(thieno[3,2-c]pyridin-2-ylmethyl)-1,4-dioxa-7-azaspiro[4.4]nonane-8-carboxamide], the IC50 was less than 100 nM.

`O=C(NCC(=O)N1C[C@H](OC(F)F)C[C@H]1C(=O)NCc1cnc2c(c1)NCC2)c1ccc2c(c1)Oc1ccccc1S2` [Compound 257, (2S,4R)-4-(difluoromethoxy)-N-((2,3-dihydro-1H-pyrrolo[3,2-b]pyridin-6-yl)methyl)-1-((phenoxathiine-3-carbonyl)glycyl)pyrrolidine-2-carboxamide]: the IC50 was greater than 1000 nM.

`O=C(NCC(=O)N1C[C@H](OC(F)F)C[C@H]1C(=O)NCc1ccc2[nH]cnc2n1)c1ccc2c(c1)Oc1ccccc1S2` [Compound 258, (2S,4R)-N-((1H-imidazo[4,5-b]pyridin-5-yl)methyl)-4-(difluoromethoxy)-1-((phenoxathiine-3-carbonyl)glycyl)pyrrolidine-2-carboxamide]: the IC50 was greater than 1000 nM. Then `O=C(NCC(=O)N1C[C@H](OC(F)F)C[C@H]1C(=O)NCc1cc2cnccc2[nH]1)c1cccc(Oc2ccc(F)cc2F)c1` [Compound 259, (2S,4R)-N-((1H-pyrrolo[3,2-c]pyridin-2-yl)methyl)-4-(difluoromethoxy)-1-((3-(2,4-difluorophenoxy)benzoyl)glycyl)pyrrolidine-2-carboxamide], with less than 100 nM; and `Cc1ccc(Oc2cccc(C(=O)NCC(=O)N3C[C@H](OC(F)F)C[C@H]3C(=O)NCc3cc4cnccc4[nH]3)c2)c(F)c1` [Compound 260, (2S,4R)-N-((1H-pyrrolo[3,2-c]pyridin-2-yl)methyl)-4-(difluoromethoxy)-1-((3-(2-fluoro-4-methylphenoxy)benzoyl)glycyl) pyrrolidine-2-carboxamide], with less than 100 nM. In the case of `O=C(NCC(=O)N1CC=C[C@H]1C(=O)NCc1cc2cnccc2[nH]1)c1ccc2c(c1)Oc1ccccc1S2` [Compound 261, (S)-N-((1H-pyrrolo[3,2-c]pyridin-2-yl)methyl)-1-((phenoxathiine-3-carbonyl)glycyl)-2,5-dihydro-1H-pyrrole-2-carboxamide] it was less than 100 nM; in that of `O=C(NCC(=O)N1C[C@H](OC(F)F)C[C@H]1C(=O)NCc1cnc2cn[nH]c2c1)c1ccc2c(c1)Oc1ccccc1S2` [Compound 262, (2S,4R)-N-((1H-pyrazolo[4,3-b]pyridin-6-yl)methyl)-4-(difluoromethoxy)-1-((phenoxathiine-3-carbonyl)glycyl)pyrrolidine-2-carboxamide], greater than 1000 nM; in that of `C[C@@]12C[C@@H]1N(C(=O)CNC(=O)c1ccc3c(c1)Oc1ccccc1S3)[C@H](C(=O)NCc1ccc(B(O)O)cc1)C2` [Compound 263, (4-(((1S,3S,5S)-5-methyl-2-((phenoxathiine-3-carbonyl)glycyl)-2-azabicyclo[3.1.0]hexane-3-carboxamido)methyl)phenyl) boronic acid], greater than 1000 nM.

Source of the values: patent US20260062443A1 (ALEXION PHARMACEUTICALS, INC., priority 2022, published 2026).
